Data as given in article PMC9186491, “Novel Small Molecule Tyrosine Kinase 2 Pseudokinase Ligands Block Cytokine-Induced TYK2-Mediated Signaling Pathways” (Frontiers in Immunology, 2022).
Converted amounts (≈) assume the structure as drawn. “And” between values parts separate entries of the source, which are not always exact repeats. Equal entries are not always repeated. Where two headings read alike, the source gives them in different places.

Tests used:
[1] = target: T1, TYK2 JH2 pseudokinase domain (Homo sapiens, UniProt P29597); assay: KdELECT competition binding assay, TYK2 JH2; settings: isolated TYK2 JH2 domain
T1 construct: purchased Eurofins DiscoverX Corporation (contract assay)
Protocol: (§1) The KdELECT competition assays were performed to test the binding affinity of compounds to the JH1 kinase region or JH2 pseudokinase region in TYK2 or JAK by ligand competition with JH1 or JH2 protein segments. The assay was carried out at Eurofins DiscoverX Corporation following the established standard protocol (DiscoverX, San Diego, CA). In this assay, compounds that bind to the kinase or pseudokinase protein regions prevent the protein binding to the immobilized ligand and reduce the amount of kinase matter captured on the solid surface. […] Dissociation constants (Kds) for test compound-kinase interactions are calculated by measuring the amount of kinase captured on the solid support as a function of the test compound concentration. […] The ligated beads were blocked with excess biotin and washed with blocking buffer to remove unbound ligand and to reduce nonspecific binding. […] All reactions were performed in polypropylene 384-well plates with a final volume of 20 μL. […] The beads were then re-suspended in the elution buffer and incubated at room temperature with shaking for 30 minutes. The kinase concentration in the eluant was measured by qPCR. Two replicates were performed and averaged to obtain the Kd measurement.

TYK2 JH1 kinase domain = target: T2, TYK2 JH1 kinase domain (Homo sapiens, UniProt P29597); assay: KdELECT competition binding assay, TYK2 JH1; settings: isolated TYK2 JH1 domain
T2 construct: purchased Eurofins DiscoverX Corporation (contract assay)
T2 sequence (P29597 897-1176 limits assumed): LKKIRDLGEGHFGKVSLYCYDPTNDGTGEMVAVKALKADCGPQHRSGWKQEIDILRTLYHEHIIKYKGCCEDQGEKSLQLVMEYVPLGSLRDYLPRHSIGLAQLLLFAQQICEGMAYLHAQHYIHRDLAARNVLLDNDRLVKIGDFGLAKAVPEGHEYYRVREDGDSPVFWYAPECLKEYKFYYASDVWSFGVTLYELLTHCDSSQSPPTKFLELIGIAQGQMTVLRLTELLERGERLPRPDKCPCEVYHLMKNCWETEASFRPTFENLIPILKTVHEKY
Protocol: as §1

PPB, D = type: in vitro ADME; settings: dog, plasma
Solubility (PBS/Fas/Fes) = type: physicochemical
LogD = type: physicochemical
CYP450 2C9 = CYP450 2C9 (Homo sapiens, UniProt P11712); assay: CYP450 inhibition, 2C9; type: in vitro ADME
LM T1/2, D = type: in vitro ADME; settings: dog, liver microsomes
CYP450 1A2 = target: T3, CYP450 1A2 (Homo sapiens, UniProt P05177); assay: CYP450 inhibition, 1A2; type: in vitro ADME
T3 sequence (P05177 1-516): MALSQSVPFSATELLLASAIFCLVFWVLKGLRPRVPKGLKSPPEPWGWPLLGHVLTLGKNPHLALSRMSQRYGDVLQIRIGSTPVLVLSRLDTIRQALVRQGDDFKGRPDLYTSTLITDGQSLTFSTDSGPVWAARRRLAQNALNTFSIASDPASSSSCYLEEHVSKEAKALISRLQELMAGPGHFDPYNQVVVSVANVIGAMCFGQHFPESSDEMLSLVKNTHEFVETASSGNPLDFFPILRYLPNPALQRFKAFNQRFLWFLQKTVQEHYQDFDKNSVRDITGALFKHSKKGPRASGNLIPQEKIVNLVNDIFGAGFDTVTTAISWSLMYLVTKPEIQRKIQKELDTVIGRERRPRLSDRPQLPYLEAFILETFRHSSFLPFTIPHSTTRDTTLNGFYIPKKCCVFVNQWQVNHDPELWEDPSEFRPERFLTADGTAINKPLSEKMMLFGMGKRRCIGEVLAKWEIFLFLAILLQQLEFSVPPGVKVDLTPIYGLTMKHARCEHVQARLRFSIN

JAK1 = JAK1 (Homo sapiens, UniProt P23458); assay: Z'LYTE JAK kinase inhibition assay, JAK1; type: biochemical; settings: read-out: JAK Catalytic Selectivity (IC50) JAK1
[2] = system: JAK2-dependent EPO-induced phosphorylation of STAT5 (Tyr694/699) in TF1 cells; assay: JAK cellular selectivity assay, EPO-pSTAT5 (JAK2); type: cell-based, human; settings: Homo sapiens, TF-1; TF1 cells; read-out: JAK Cellular Selectivity (IC50) EPO-pSTAT5 (JAK2)
Protocol: The cells were then ready for the assay after incubating for 2 hours in a humidified, 5% CO2 cell culture incubator at 37°C. […] The curve fit was generated, and statistical analysis was performed using GraphPad Prism. IC50 values were derived by non-linear regression analysis and defined as the compound concentration at which the response level was reduced to half of its maximum relative to a DMSO control.

PPB, H = type: in vitro ADME; settings: human, plasma
[3] = FaSSIF, read-out: Solubility, Fas
[4] = FeSSIF (Fes [sic]), fessif, read-out: Solubility, Fes
[5] = PBS, aqueous buffer, read-out: Solubility, PBS

CYP450 2C9, sequence (P11712 whole entry): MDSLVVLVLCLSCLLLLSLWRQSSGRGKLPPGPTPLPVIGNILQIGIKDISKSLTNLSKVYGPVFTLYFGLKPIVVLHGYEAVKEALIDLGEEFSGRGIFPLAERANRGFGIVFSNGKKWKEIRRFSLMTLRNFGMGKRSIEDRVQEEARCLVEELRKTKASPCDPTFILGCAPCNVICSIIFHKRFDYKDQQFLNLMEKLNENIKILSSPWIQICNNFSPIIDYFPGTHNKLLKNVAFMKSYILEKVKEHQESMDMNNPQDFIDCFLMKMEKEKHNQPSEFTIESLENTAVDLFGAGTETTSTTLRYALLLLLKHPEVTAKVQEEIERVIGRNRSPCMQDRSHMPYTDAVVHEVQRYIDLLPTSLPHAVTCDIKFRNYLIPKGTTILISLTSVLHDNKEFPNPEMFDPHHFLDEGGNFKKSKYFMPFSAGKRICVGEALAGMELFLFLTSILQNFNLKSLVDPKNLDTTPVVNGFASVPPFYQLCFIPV
T1 sequence (P29597 589-875 limits assumed): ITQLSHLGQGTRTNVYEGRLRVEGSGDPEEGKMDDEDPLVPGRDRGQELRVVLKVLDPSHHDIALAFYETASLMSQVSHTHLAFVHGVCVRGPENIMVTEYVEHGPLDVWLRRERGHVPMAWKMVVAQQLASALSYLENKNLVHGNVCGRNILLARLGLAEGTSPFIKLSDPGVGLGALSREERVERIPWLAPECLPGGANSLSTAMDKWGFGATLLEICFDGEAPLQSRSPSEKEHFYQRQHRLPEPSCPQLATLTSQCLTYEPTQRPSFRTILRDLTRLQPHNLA
JAK1, sequence (P23458 whole entry): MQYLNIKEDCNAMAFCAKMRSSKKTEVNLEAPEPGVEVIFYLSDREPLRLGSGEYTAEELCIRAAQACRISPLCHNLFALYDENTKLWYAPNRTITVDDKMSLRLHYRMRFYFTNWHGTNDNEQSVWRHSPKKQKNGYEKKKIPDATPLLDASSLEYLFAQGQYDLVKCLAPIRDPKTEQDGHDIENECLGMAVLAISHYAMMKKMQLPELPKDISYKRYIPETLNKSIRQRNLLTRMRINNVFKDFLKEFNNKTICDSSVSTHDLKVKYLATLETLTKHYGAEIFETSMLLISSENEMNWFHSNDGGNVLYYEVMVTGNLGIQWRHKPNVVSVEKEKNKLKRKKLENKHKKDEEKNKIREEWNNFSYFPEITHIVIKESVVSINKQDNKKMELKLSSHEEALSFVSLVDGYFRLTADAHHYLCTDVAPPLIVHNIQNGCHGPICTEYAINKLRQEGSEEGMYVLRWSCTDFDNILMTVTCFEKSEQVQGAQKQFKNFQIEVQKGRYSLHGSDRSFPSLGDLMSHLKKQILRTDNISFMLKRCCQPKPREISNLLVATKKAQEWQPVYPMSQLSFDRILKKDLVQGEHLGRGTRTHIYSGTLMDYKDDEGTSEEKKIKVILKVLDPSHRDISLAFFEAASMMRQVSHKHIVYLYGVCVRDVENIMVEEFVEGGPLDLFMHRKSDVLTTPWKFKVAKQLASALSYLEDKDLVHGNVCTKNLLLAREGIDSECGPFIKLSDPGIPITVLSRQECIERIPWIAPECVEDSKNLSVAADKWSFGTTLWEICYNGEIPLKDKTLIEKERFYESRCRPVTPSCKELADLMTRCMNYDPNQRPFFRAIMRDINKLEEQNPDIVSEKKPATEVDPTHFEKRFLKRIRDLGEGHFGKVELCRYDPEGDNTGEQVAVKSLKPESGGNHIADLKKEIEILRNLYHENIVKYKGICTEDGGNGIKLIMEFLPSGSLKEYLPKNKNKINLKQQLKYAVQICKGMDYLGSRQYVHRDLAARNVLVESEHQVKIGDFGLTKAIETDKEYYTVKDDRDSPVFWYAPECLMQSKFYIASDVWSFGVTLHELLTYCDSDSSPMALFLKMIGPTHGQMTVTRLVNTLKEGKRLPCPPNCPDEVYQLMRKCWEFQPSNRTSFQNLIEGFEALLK

| SMILES | Kd [1] | Kd (TYK2 JH1 kinase domain) | fraction unbound (PPB, D) | solubility (Solubility (PBS/Fas/Fes); [3]) | solubility (Solubility (PBS/Fas/Fes); [4]) | solubility (Solubility (PBS/Fas/Fes); [5]) | logD (LogD) | IC50 (CYP450 2C9) | half-life (LM T1/2, D) | IC50 (CYP450 1A2) | IC50 (JAK1) | IC50 [2] | fraction unbound (PPB, H) |
| --- | --- | --- | --- | --- | --- | --- | --- | --- | --- | --- | --- | --- | --- |
| CNC(=O)c1nnc(NC(=O)N2CCC2)cc1Nc1cccc(-c2ncn(C)n2)c1OC [SHR8751] | 0.032 nM | > 20 µM | 0.377 | 60.7 µM (≈ 26.6 µg/mL) | 60.9 µM (≈ 26.6 µg/mL) | 17.6 µM (≈ 7.7 µg/mL) | 0.43 | > 30 µM | > 2.32 h | > 30 µM | > 10 µM | > 10 µM | 0.402 |
| CNC(=O)c1nnc(NC(=O)C2CC2)c2[nH]c(-c3ccc(N)cc3OC)cc12 [SHR2396] | 0.029 nM and 0.019 nM | 0.3 µM | 0.0434 | 8.6 µM (≈ 3.27 µg/mL) | 8.2 µM (≈ 3.12 µg/mL) | 0.34 µM (≈ 0.129 µg/mL) | 1.19 | > 30 µM | > 2.32 h | > 30 µM | > 10 µM | > 10 µM | 0.0258 |
| [2H]C([2H])([2H])NC(=O)c1nnc(NC(=O)N2CCC2)cc1Nc1cccc(-c2ncn(C)n2)c1OC [SHR9332] | 0.04 nM | > 20 µM | 0.325 | 71.4 µM (≈ 31.5 µg/mL) | 108 µM (≈ 47.6 µg/mL) | 25.6 µM (≈ 11.3 µg/mL) | 0.48 | > 30 µM | 0.775 h | > 30 µM | > 10 µM | > 10 µM | 0.274 |
